In patent US20100120690A1, “Polypeptides Having Antimicrobial Activity and Polynucleotides Encoding Same” (Novozymes Adenium Biotech A/S, priority 2005, published 2010):

What was measured:
Type in all cases: cell-based
[1] = tested on: Staphylococcus aureus, MRSA ST80 (2003); test: MIC, NCCLS/CLSI guidelines (Example 5), strain E; settings: relative to wildtype Plectasin; average of two independent experiments
Protocol: (§1) Plectasin wild-type (SEQ ID NO: 1) and several variants of Plectasin were expressed and purified. The Minimal Inhibitory Concentration (MIC) was determined to test for their antimicrobial activity following the NCCLS guidelines from CLSI (Clinical and Laboratory Standards Institute; formerly known as National Committee for Clinical and Laboratory Standards).
(§2) The peptides were tested against the following strains: • A: Staphylococcus aureus, ATCC 29213; • B: Staphylococcus aureus, ATCC 25923; • C: Staphylococcus aureus, ATCC 29737; • D: Staphylococcus aureus, MRSA ST5 (2001), multi-resistant clinical human isolate from Statens Serum Institut, Denmark; • E: Staphylococcus aureus, MRSA ST80 (2003), multi-resistant clinical human isolate from Statens Serum Institut, Denmark.
(§3) All MIC values represent an average of two independent experiments; and all results in Table 5 are expressed relative to wildtype Plectasin:
(§4) 0: >100% of Plectasin wildtype MIC; 1: 80-100% of Plectasin wildtype MIC; 2: 50-80% of Plectasin wildtype MIC; 3: <50% of Plectasin wildtype MIC.

[2] = tested on: Staphylococcus aureus, ATCC 29213; test: MIC, NCCLS/CLSI guidelines (Example 5), strain A; settings: relative to wildtype Plectasin; average of two independent experiments
Protocol: as §1, §2, §3, §4

[3] = tested on: Staphylococcus aureus, ATCC 29737; test: MIC, NCCLS/CLSI guidelines (Example 5), strain C; settings: relative to wildtype Plectasin; average of two independent experiments
Protocol: as §1, §2, §3, §4

[4] = tested on: Staphylococcus aureus, MRSA ST5 (2001); test: MIC, NCCLS/CLSI guidelines (Example 5), strain D; settings: relative to wildtype Plectasin; average of two independent experiments
Protocol: as §1, §2, §3, §4

[5] = tested on: panel of 6 different strains of Staphylococcus aureus; test: Average MIC, NCCLS/CLSI guidelines using caMHB (Example 6); settings: average over 6 S. aureus strains, duplicate; MIC above 32 counted as 64; read after 18-24 hours at 37° C.
Protocol: A large number of antimicrobial peptides of the invention were tested against a panel of 6 different strains of Staphylococcus aureus listed below:
Staphylococcus aureus, ATCC29213, MSSA, NCCLS reference strain; Staphylococcus aureus, ATCC25923, MSSA, NCCLS reference strain; Staphylococcus aureus, ATCC29737, MSSA; Staphylococcus aureus, E33235, MSSA; Staphylococcus aureus, 698-01, MRSA ST5, Str, Kan, Oxa; Staphylococcus aureus, 566-03, MRSA ST80, Oxa, Tet, Fus, Kan.
The staphylococci were exposed to the following peptide concentrations: 32; 16; 8; 4; 2; 1; 0.5; 0.25; 0.13; […]; and 0.03 microgram/mL. All peptides were purified, HPLC quantified and the concentrated peptides (>160 micrograms/mL) were diluted to 160 micrograms/mL in peptide dilution buffer (0.1% BSA, 0.01% Acetic Acid).
The MIC determination was done essentially as described by NCCLS/CLSI guidelines using caMHB. The MICs were read after 18-24 hours of 37° C. incubations and recorded along with the CFU in the table below.
A total number of 95 antimicrobial peptides of the invention were evaluated in duplicate against the 6 bacterial strains described above.
In the majority of the double determinations (93%), the MIC varied <2 fold. An average MIC is tabulated below. If the MIC was above 32 micrograms/mL, a value of 64 was used to calculate the average.

[6] = tested on: Staphylococcus aureus, ATCC 25923; test: MIC, NCCLS/CLSI guidelines (Example 5), strain B; settings: relative to wildtype Plectasin; average of two independent experiments
Protocol: as §1, §2, §3, §4

Substance | Relative MIC, strain E [1] | Relative MIC, strain A [2] | Relative MIC, strain C [3] | Relative MIC, strain D [4] | Average MIC [5] | Relative MIC, strain B [6]
N5G + M13L: variant of Plectasin (SEQ ID NO: 1) (GFGCGGPWDEDDLQCHNHCKSIKGYKGGYCAKGGFVCKCY) | 3 (<50% of Plectasin wildtype MIC) | 2 (50-80% of Plectasin wildtype MIC) | 3 (<50% of Plectasin wildtype MIC) | 3 (<50% of Plectasin wildtype MIC) | 4 micrograms/mL | 3 (<50% of Plectasin wildtype MIC)
D9N + Q14H + K38R: variant of Plectasin (SEQ ID NO: 1) (GFGCNGPWNEDDMHCHNHCKSIKGYKGGYCAKGGFVCRCY) | 2 (50-80% of Plectasin wildtype MIC) | 3 (<50% of Plectasin wildtype MIC) | 3 (<50% of Plectasin wildtype MIC) | 3 (<50% of Plectasin wildtype MIC) | 4 micrograms/mL | 3 (<50% of Plectasin wildtype MIC)
D9S + Q14L + K26R: variant of Plectasin (SEQ ID NO: 1) (GFGCNGPWSEDDMLCHNHCKSIKGYRGGYCAKGGFVCKCY) | 3 (<50% of Plectasin wildtype MIC) | 3 (<50% of Plectasin wildtype MIC) | 3 (<50% of Plectasin wildtype MIC) | 3 (<50% of Plectasin wildtype MIC) | 3 micrograms/mL | 3 (<50% of Plectasin wildtype MIC)
N5A + D9S + M13L + N17T: variant of Plectasin (SEQ ID NO: 1) (GFGCAGPWSEDDLQCHTHCKSIKGYKGGYCAKGGFVCKCY) | 3 (<50% of Plectasin wildtype MIC) | 0 (>100% of Plectasin wildtype MIC) | 3 (<50% of Plectasin wildtype MIC) | 2 (50-80% of Plectasin wildtype MIC) | 6 micrograms/mL | 3 (<50% of Plectasin wildtype MIC)
N5G + Q14K: variant of Plectasin (SEQ ID NO: 1) (GFGCGGPWDEDDMKCHNHCKSIKGYKGGYCAKGGFVCKCY) | 2 (50-80% of Plectasin wildtype MIC) | 2 (50-80% of Plectasin wildtype MIC) | 3 (<50% of Plectasin wildtype MIC) | 0 (>100% of Plectasin wildtype MIC) | 9 micrograms/mL | 2 (50-80% of Plectasin wildtype MIC)
M13G + N17R + G33A: variant of Plectasin (SEQ ID NO: 1) (GFGCNGPWDEDDGQCHRHCKSIKGYKGGYCAKAGFVCKCY) | 3 (<50% of Plectasin wildtype MIC) | 3 (<50% of Plectasin wildtype MIC) | 3 (<50% of Plectasin wildtype MIC) | 3 (<50% of Plectasin wildtype MIC) | 2 micrograms/mL | 3 (<50% of Plectasin wildtype MIC)
M13Y + Q14K + K26R: variant of Plectasin (SEQ ID NO: 1) (GFGCNGPWDEDDYKCHNHCKSIKGYRGGYCAKGGFVCKCY) | 3 (<50% of Plectasin wildtype MIC) | 2 (50-80% of Plectasin wildtype MIC) | 3 (<50% of Plectasin wildtype MIC) | 3 (<50% of Plectasin wildtype MIC) | 5 micrograms/mL | 3 (<50% of Plectasin wildtype MIC)
D9S + Q14K + V36L: variant of Plectasin (SEQ ID NO: 1) (GFGCNGPWSEDDMKCHNHCKSIKGYKGGYCAKGGFLCKCY) | 3 (<50% of Plectasin wildtype MIC) | 3 (<50% of Plectasin wildtype MIC) | 3 (<50% of Plectasin wildtype MIC) | 3 (<50% of Plectasin wildtype MIC) | 1 micrograms/mL | 3 (<50% of Plectasin wildtype MIC)
D9A + K38R: variant of Plectasin (SEQ ID NO: 1) (GFGCNGPWAEDDMQCHNHCKSIKGYKGGYCAKGGFVCRCY) | 3 (<50% of Plectasin wildtype MIC) | 3 (<50% of Plectasin wildtype MIC) | 3 (<50% of Plectasin wildtype MIC) | 3 (<50% of Plectasin wildtype MIC) | 4 micrograms/mL | 3 (<50% of Plectasin wildtype MIC)
N5R + M13Y + N17R: variant of Plectasin (SEQ ID NO: 1) (GFGCRGPWDEDDYQCHRHCKSIKGYKGGYCAKGGFVCKCY) | 3 (<50% of Plectasin wildtype MIC) | 3 (<50% of Plectasin wildtype MIC) | 3 (<50% of Plectasin wildtype MIC) | 3 (<50% of Plectasin wildtype MIC) | 1 micrograms/mL | 3 (<50% of Plectasin wildtype MIC)
D9A + Q14H + K26R + V36L: variant of Plectasin (SEQ ID NO: 1) (GFGCNGPWAEDDMHCHNHCKSIKGYRGGYCAKGGFLCKCY) | 3 (<50% of Plectasin wildtype MIC) | 3 (<50% of Plectasin wildtype MIC) | 3 (<50% of Plectasin wildtype MIC) | 3 (<50% of Plectasin wildtype MIC) | 1 micrograms/mL | 3 (<50% of Plectasin wildtype MIC)
N5S + D9S: variant of Plectasin (SEQ ID NO: 1) (GFGCSGPWSEDDMQCHNHCKSIKGYKGGYCAKGGFVCKCY) | 3 (<50% of Plectasin wildtype MIC) | 0 (>100% of Plectasin wildtype MIC) | 3 (<50% of Plectasin wildtype MIC) | 2 (50-80% of Plectasin wildtype MIC) | 6 micrograms/mL | 3 (<50% of Plectasin wildtype MIC)
M13T + Q14K + K26R: variant of Plectasin (SEQ ID NO: 1) (GFGCNGPWDEDDTKCHNHCKSIKGYRGGYCAKGGFVCKCY) | 0 (>100% of Plectasin wildtype MIC) | 1 (80-100% of Plectasin wildtype MIC) | 3 (<50% of Plectasin wildtype MIC) | 2 (50-80% of Plectasin wildtype MIC) | 7 micrograms/mL | 3 (<50% of Plectasin wildtype MIC)
D9N + M13L + Q14R: variant of Plectasin (SEQ ID NO: 1) (GFGCNGPWNEDDLRCHNHCKSIKGYKGGYCAKGGFVCKCY) | 3 (<50% of Plectasin wildtype MIC) | 3 (<50% of Plectasin wildtype MIC) | 3 (<50% of Plectasin wildtype MIC) | 3 (<50% of Plectasin wildtype MIC) | 1 micrograms/mL | 3 (<50% of Plectasin wildtype MIC)
N5G + M13Y + N17K: variant of Plectasin (SEQ ID NO: 1) (GFGCGGPWDEDDYQCHKHCKSIKGYKGGYCAKGGFVCKCY) | 2 (50-80% of Plectasin wildtype MIC) | 3 (<50% of Plectasin wildtype MIC) | 3 (<50% of Plectasin wildtype MIC) | 3 (<50% of Plectasin wildtype MIC) | 5 micrograms/mL | 3 (<50% of Plectasin wildtype MIC)
